Data as given in PubChem BioAssay (NCI).
Several values for one entry are separate records, joined by “and”; a condition that tells them apart may be missing. Equal values may be shown once.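 Dose response: 5 concentrations. Exposure: 48 h. Format: 96-well plates. Endpoint: linear interpolation; highest concentration if not reached. The concentration for 50% growth inhibition is given as GI50. TGI denotes the concentration required for complete inhibition of growth.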

Tests used:
Assay in all cases: NCI tumour cell line growth inhibition, 48 h
[1] = system: SK-OV-3 ovarian
[2] = system: M14 melanoma
[3] = system: SNB-19 CNS
[4] = system: 786-0 renal
[5] = system: DMS 273 small cell lung
[6] = system: MDA-MB-231 breast
[7] = system: SK-MEL-5 melanoma
[8] = system: RXF-631 renal
[9] = system: BT-549 breast
[10] = system: HS 578T breast
[11] = system: UACC-257 melanoma
[12] = system: OVCAR-4 ovarian
[13] = system: MALME-3M melanoma
[14] = system: MOLT-4 leukemia
[15] = system: SF-268 CNS
[16] = system: HCT-15 colon
[17] = system: HT29 colon
[18] = system: SN12C renal
[19] = system: ACHN renal
[20] = system: KM20L2 colon
[21] = system: IGROV1 ovarian
[22] = system: UO-31 renal
[23] = system: A498 renal
[24] = system: SR leukemia
[25] = system: U251 CNS
[26] = system: CCRF-CEM leukemia
[27] = system: DLD-1 colon
[28] = system: SK-MEL-28 melanoma
[29] = system: COLO 205 colon
[30] = system: HCT-116 colon
[31] = system: SK-MEL-2 melanoma
[32] = system: HOP-92 NSCLC
[33] = system: NCI-H226 lung
[34] = system: LOX IMVI melanoma
[35] = system: OVCAR-5 ovarian
[36] = system: CAKI-1 renal
[37] = system: DMS 114 small cell lung
[38] = system: HOP-18 NSCLC
[39] = system: RPMI-8226 leukemia
[40] = system: HCC-2998 colon
[41] = system: SNB-75 CNS
[42] = system: EKVX NSCLC
[43] = system: M19-MEL melanoma
[44] = system: OVCAR-8 ovarian
[45] = system: SW-620 colon
[46] = system: KM12 colon
[47] = system: PC-3 prostate
[48] = system: NCI-H460 lung
[49] = system: OVCAR-3 ovarian
[50] = system: TK-10 renal
[51] = system: MDA-MB-435
[52] = system: DU-145 prostate
[53] = system: NCI-H522 lung
[54] = system: SF-295 CNS
[55] = system: UACC-62 melanoma
[56] = system: K-562 leukemia
[57] = system: SF-539 CNS
[58] = system: HL-60(TB) leukemia
[59] = system: SNB-78 CNS
[60] = system: MDA-N
[61] = system: LXFL 529 NSCLC
[62] = system: T-47D breast
[63] = system: A549 NSCLC
[64] = system: NCI-H23 lung
[65] = system: MCF7 breast
[66] = system: XF 498 CNS
[67] = system: RXF 393 renal
[68] = system: HOP-62 NSCLC
[69] = system: P388/ADR leukemia
[70] = system: SN12K1 renal
[71] = system: P388 leukemia

O=C1C(Cl)=C(Cl)C(=O)N1c1ccc(F)cc1
TGI [1]: > 69.2 µM
TGI [2]: 39.5 µM
TGI [3]: > 73.2 µM
TGI [4]: 31 µM
TGI [5]: > 62 µM
TGI [6]: 33 µM
TGI [7]: > 67.9 µM
TGI [8]: > 72.6 µM
TGI [9]: 30.1 µM
TGI [10]: 55.4 µM
TGI [11]: > 100 µM
TGI [12]: 23.8 µM
TGI [13]: 32.5 µM
TGI [14]: 34.8 µM
TGI [15]: > 77.3 µM
TGI [16]: 34 µM
TGI [17]: 49.8 µM
TGI [18]: 34.9 µM
TGI [19]: 36.3 µM
TGI [20]: 52.8 µM
TGI [21]: 43.6 µM
TGI [22]: 48.8 µM
TGI [23]: > 100 µM
TGI [24]: 47.2 µM
TGI [25]: 53.2 µM
TGI [26]: 16.5 µM
TGI [27]: 41 µM
TGI [28]: 37.1 µM
TGI [29]: 35.1 µM
TGI [30]: > 54.5 µM
TGI [31]: > 72.8 µM
TGI [32]: 35.8 µM
TGI [33]: > 77.7 µM
TGI [34]: 32.6 µM
TGI [35]: 41 µM
TGI [36]: 21 µM
TGI [37]: 39.4 µM
TGI [38]: 43.1 µM
TGI [39]: 59.7 µM
TGI [40]: 48.1 µM
TGI [41]: 20.8 µM
TGI [42]: 40.6 µM
TGI [43]: 41.8 µM
TGI [44]: 45.1 µM
TGI [45]: 34.1 µM
TGI [46]: 50.2 µM
TGI [47]: 29.8 µM
TGI [48]: > 100 µM
TGI [49]: 32.4 µM
TGI [50]: 35.1 µM
TGI [51]: 34.9 µM
TGI [52]: > 100 µM
TGI [53]: 5.95 µM
TGI [54]: > 100 µM
TGI [55]: 31.7 µM
TGI [56]: > 51.1 µM
TGI [57]: 51.9 µM
TGI [58]: 11.5 µM
TGI [59]: 71.3 µM
TGI [60]: 48.7 µM
TGI [61]: 32.1 µM
TGI [62]: 51.2 µM
TGI [63]: > 100 µM
TGI [64]: 36.9 µM
TGI [65]: 42.9 µM
TGI [66]: 34.9 µM
TGI [67]: 38.5 µM
TGI [68]: 98.7 µM

CC[C@]1(O)C[C@H]2CN(CCc3c([nH]c4ccccc34)[C@@](C(=O)OC)(c3cc4c(cc3OC)N(C)[C@H]3[C@@](O)(C(=O)OC)[C@H](OC(C)=O)[C@]5(CC)C=CCN6CC[C@]43[C@@H]65)C2)C1
TGI [5]: 0.123 µM
TGI [8]: 1.03 µM
TGI [10]: 0.24 µM and 1.37 µM
TGI [11]: 1.89 µM and 2.5 µM and 16.1 µM
TGI [17]: 0.124 µM
GI50 [19]: 0.0527 nM
GI50 [20]: 0.025 nM
TGI [20]: 0.00183 µM
GI50 [24]: < 2.5 pM
TGI [69]: 0.931 µM
TGI [27]: 2.5 µM
GI50 [28]: 7.41 pM
TGI [70]: 0.0027 µM
TGI [37]: 0.00581 µM
TGI [38]: 1.51 µM
TGI [41]: 0.025 µM and 0.0807 µM
TGI [71]: 0.139 µM
GI50 [52]: 7.48 pM
TGI [59]: 1.7 µM
TGI [60]: 0.00025 µM and 0.000771 µM
TGI [61]: 1.06 µM
TGI [66]: 0.0333 µM
GI50 [67]: 0.00135 µM
